Source: US20250059171A1 (Hoffmann-La Roche Inc., priority 2021, published 2025)

Experiments:
SARS-CoV 3CLpro = SARS-CoV 3CLpro (Severe acute respiratory syndrome coronavirus, UniProt P0C6X7); assay: biochemical
SARS-CoV-2 3CLpro = SARS-CoV-2 3CLpro (Severe acute respiratory syndrome coronavirus 2, UniProt P0DTD1); assay: biochemical
MERS-CoV 3CLpro = MERS-CoV 3CLpro (Middle East respiratory syndrome-related coronavirus, UniProt K9N7C7); assay: biochemical
HCoV-229E 3CLpro = HCoV-229E 3CLpro (Human coronavirus 229E, UniProt P0C6X1); assay: HCoV-229E 3CLpro inhibition assay (FRET); assay type: biochemical
Chain of HCoV-229E 3CLpro (P0C6X1 2966-3267): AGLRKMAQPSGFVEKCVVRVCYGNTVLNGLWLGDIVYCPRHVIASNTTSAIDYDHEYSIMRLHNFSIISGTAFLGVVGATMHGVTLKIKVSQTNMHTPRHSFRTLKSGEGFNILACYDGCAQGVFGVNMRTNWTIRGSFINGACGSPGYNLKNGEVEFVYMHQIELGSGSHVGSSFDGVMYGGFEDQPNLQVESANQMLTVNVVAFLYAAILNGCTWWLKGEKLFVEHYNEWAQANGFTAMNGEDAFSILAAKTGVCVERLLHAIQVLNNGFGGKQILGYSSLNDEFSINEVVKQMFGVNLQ

Chain of MERS-CoV 3CLpro (K9N7C7 3248-3553): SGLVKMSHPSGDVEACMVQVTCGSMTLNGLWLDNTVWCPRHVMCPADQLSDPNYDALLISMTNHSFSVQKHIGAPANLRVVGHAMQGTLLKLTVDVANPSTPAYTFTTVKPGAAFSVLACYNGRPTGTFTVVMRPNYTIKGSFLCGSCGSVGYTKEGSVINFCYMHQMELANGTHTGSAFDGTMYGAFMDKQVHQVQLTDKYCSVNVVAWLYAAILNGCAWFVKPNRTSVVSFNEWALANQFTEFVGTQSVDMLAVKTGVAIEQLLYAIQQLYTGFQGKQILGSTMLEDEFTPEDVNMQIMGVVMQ

SMILES | IC50 (SARS-CoV 3CLpro) [nM] | IC50 (SARS-CoV-2 3CLpro) [nM] | IC50 (MERS-CoV 3CLpro) [nM] | IC50 (HCoV-229E 3CLpro) [nM]
CC(C)(C)[C@H](NC(=O)C(F)(F)F)C(=O)N1C[C@H]2[C@@H]([C@H]1C(=O)NN(C[C@@H]1CCNC1=O)C(=O)[C@H](F)Cl)C2(C)C [Example 1, N-[(1S)-1-[(1R,2S,5S)-2-[[[(2R)-2-chloro-2-fluoro-acetyl]-[[(3S)-2-oxopyrrolidin-3-yl]methyl]amino]carbamoyl]-6,6-dimethyl-3-azabicyclo[3.1.0]hexane-3-carbonyl]-2,2-dimethyl-propyl]-2,2,2-trifluoro-acetamide] | 15 | 10 | 115 | 35
CC(C)(C)[C@H](NC(=O)C(F)(F)F)C(=O)N1C[C@@H]2C[C@@H]2[C@H]1C(=O)NN(C[C@@H]1CCNC1=O)C(=O)[C@H](F)Cl [Example 9, N-[(1S)-1-[(1S,2S,5R)-2-[[[(2R)-2-chloro-2-fluoro-acetyl]-[[(3S)-2-oxopyrrolidin-3-yl]methyl]amino]carbamoyl]-3-azabicyclo[3.1.0]hexane-3-carbonyl]-2,2-dimethyl-propyl]-2,2,2-trifluoro-acetamide] | 38 | 12 | 2780 | 939
CC[C@H](C)[C@H](NC(=O)C(C)C)C(=O)N1C[C@H]2[C@@H]([C@H]1C(=O)NN(C[C@@H]1CCNC1=O)C(=O)[C@H](F)Cl)C2(C)C [Example 54, N-[(1S,2S)-1-[(1R,2S,5S)-2-[[[(2R)-2-chloro-2-fluoro-acetyl]-[[(3S)-2-oxopyrrolidin-3-yl]methyl]amino]carbamoyl]-6,6-dimethyl-3-azabicyclo[3.1.0]hexane-3-carbonyl]-2-methyl-butyl]-2-methyl-propanamide] | 12 | 9 | 56 | 24
CC1(C)[C@@H]2[C@@H](C(=O)NN(C[C@@H]3CCNC3=O)C(=O)[C@H](F)Cl)N(C(=O)[C@@H](NC(=O)C(F)(F)F)c3ccccc3)C[C@@H]21 [Example 21, N-[(1S)-2-[(1R,2S,5S)-2-[[[(2R)-2-chloro-2-fluoro-acetyl]-[[(3S)-2-oxopyrrolidin-3-yl]methyl]amino]carbamoyl]-6,6-dimethyl-3-azabicyclo[3.1.0]hexan-3-yl]-2-oxo-1-phenyl-ethyl]-2,2,2-trifluoro-acetamide] | 17 | 25 | 109 | 34
CC(C)(C)[C@H](NC(=O)C(F)(F)F)C(=O)N1CCC(C)(C)[C@H]1C(=O)NN(C[C@@H]1CCNC1=O)C(=O)[C@H](F)Cl [Example 155a, N-[(1S)-1-[(2S)-2-[[[(2R)-2-chloro-2-fluoro-acetyl]-[[(3S)-2-oxopyrrolidin-3-yl]methyl]amino]carbamoyl]-3,3-dimethyl-pyrrolidine-1-carbonyl]-2,2-dimethyl-propyl]-2,2,2-trifluoro-acetamide] | 28 | 24 | 1330 | 739
CC[C@H](C)[C@H](NC(=O)C(F)F)C(=O)N1C[C@H]2[C@@H]([C@H]1C(=O)NN(C[C@@H]1CCNC1=O)C(=O)[C@@H](F)Cl)C2(C)C [Example 109, N-[(1S,2S)-1-[(1R,2S,5S)-2-[[[(2S)-2-chloro-2-fluoro-acetyl]-[[(3S)-2-oxopyrrolidin-3-yl]methyl]amino]carbamoyl]-6,6-dimethyl-3-azabicyclo[3.1.0]hexane-3-carbonyl]-2-methyl-butyl]-2,2-difluoro-acetamide] | 20 | 14 | 86 | 29
CC[C@H](C)[C@H](NC(=O)C(Cl)Cl)C(=O)N1C[C@H]2[C@@H]([C@H]1C(=O)NN(C[C@@H]1CCNC1=O)C(=O)[C@H](F)Cl)C2(C)C [Example 61, 2,2-dichloro-N-[(1S,2S)-1-[(1R,2S,5S)-2-[[[(2R)-2-chloro-2-fluoro-acetyl]-[[(3S)-2-oxopyrrolidin-3-yl]methyl]amino]carbamoyl]-6,6-dimethyl-3-azabicyclo[3.1.0]hexane-3-carbonyl]-2-methyl-butyl]acetamide] | 11 | 8 | 121 | 30
CC1(C)[C@@H]2[C@@H](C(=O)NN(C[C@@H]3CCNC3=O)C(=O)[C@H](F)Cl)N(C(=O)/C=C/c3cc(C(F)(F)F)cc(C(F)(F)F)c3)C[C@@H]21 [Example 180, (1R,2S,5S)-3-[(E)-3-[3,5-bis(trifluoromethyl)phenyl]prop-2-enoyl]-N′-[(2R)-2-chloro-2-fluoro-acetyl]-6,6-dimethyl-N′—[[(3S)-2-oxopyrrolidin-3-yl]methyl]-3-azabicyclo[3.1.0]hexane-2-carbohydrazide] | 786 | 491 | 657 | 241
CCC(C)(C)[C@H](NC(=O)C1CC1)C(=O)N1C[C@H]2[C@@H]([C@H]1C(=O)NN(C[C@@H]1CCCNC1=O)C(=O)[C@H](F)Cl)C2(C)C [Example 169a, N-[(1S)-1-[(1R,2S,5S)-2-[[[(2R)-2-chloro-2-fluoro-acetyl]-[[(3S)-2-oxo-3-piperidyl]methyl]amino]carbamoyl]-6,6-dimethyl-3-azabicyclo[3.1.0]hexane-3-carbonyl]-2,2-dimethyl-butyl]cyclopropanecarboxamide] | 20 | 9 | 118 | 56
CC(C)C(=O)N[C@H](C(=O)N1C[C@@H]2CCC[C@@H]2[C@H]1C(=O)NN(C[C@@H]1CCNC1=O)C(=O)[C@H](F)Cl)C(C)(C)C [Example 33, N-[(1S)-1-[(3S,3aS,6aR)-3-[[[(2R)-2-chloro-2-fluoro-acetyl]-[[(3S)-2-oxopyrrolidin-3-yl]methyl]amino]carbamoyl]-3,3a,4,5,6,6a-hexahydro-1H-cyclopenta[c]pyrrole-2-carbonyl]-2,2-dimethyl-propyl]-2-methyl-propanamide] | 8 | 7 | 79 | 27
CC[C@H](C)[C@H](NC(=O)C(C)(C)F)C(=O)N1C[C@@H]2CCC[C@@H]2[C@H]1C(=O)NN(C[C@@H]1CCNC1=O)C(=O)[C@H](F)Cl [Example 42, N-[(1S,2S)-1-[(3S,3aS,6aR)-3-[[[(2R)-2-chloro-2-fluoro-acetyl]-[[(3S)-2-oxopyrrolidin-3-yl]methyl]amino]carbamoyl]-3,3a,4,5,6,6a-hexahydro-1H-cyclopenta[c]pyrrole-2-carbonyl]-2-methyl-butyl]-2-fluoro-2-methyl-propanamide] | 9 | 7 | 82 | 24
CCC(C)(C)[C@H](NC(=O)C(F)F)C(=O)N1C[C@@H]2CCC[C@@H]2[C@H]1C(=O)NN(C[C@@H]1CCNC1=O)C(=O)[C@H](F)Cl [Example 151, N-[(1S)-1-[(3S,3aS,6aR)-3-[[[(2R)-2-chloro-2-fluoro-acetyl]-[[(3S)-2-oxopyrrolidin-3-yl]methyl]amino]carbamoyl]-3,3a,4,5,6,6a-hexahydro-1H-cyclopenta[c]pyrrole-2-carbonyl]-2,2-dimethyl-butyl]-2,2-difluoro-acetamide] | 14 | 13 | 67 | 31
